Entries after “also recorded” stand apart in the source; their conditions may differ.
Tests used:
[1] = system: H1975 non-small cell lung cancer (NSCLC) cell line; assay: MTT cell proliferation assay; format: cell-based, human; conditions: 20 μM and 40 μM, 2 days
Experimental: (§1) Human non-small cell lung carcinoma cell line H1975 was cultured at 37° C. and 5% CO2 in RPMI-1640 (Corning) supplemented with 10% fetal bovine serum (HyClone). Human breast cancer cell line MDA-MB-231 was cultured in DMEM supplemented with 10% fetal bovine serum. For cell proliferation assay, 2˜3×10^3 cells were seeded in each well of 96-well plates. After treating cells with compounds for 2 days, cells were incubated with 50 μg/ml MTT (3-(4,5-Dimethylthiazol-2-yl)-2,5-diphenyltetrazolium bromide) for ˜3-4 hours. Then, the culture medium was removed, DMSO was added to dissolve the formazan crystals. Wells containing only media were used for background correction. The optical density was measured spectrophotometrically at 540 nm. For signaling analysis, cells were serum-starved overnight followed by treatment with vehicle or compounds for 3 hours, and then either left un-stimulated or stimulated with 5 μg/ml EGF or 10 nM PMA (Sigma) for indicated time. Cells were lysed and the lysates were electrophoresed on a 10% polyacrylamide gel, and then transferred to a nitrocellulose membrane, and probed with anti-phospho-ERK1/2 and anti-ERK1/2 (Cell Signaling) antibodies followed by incubation with horseradish peroxidase-conjugated secondary antibodies. The blots were developed by the enhanced chemiluminescence technique using the SuperSignal West Pico Chemiluminescent substrate (Pierce).

[2] = system: MDA-MB-231 breast cancer cell line; assay: MTT cell proliferation assay; format: cell-based, human; conditions: 20 μM and 40 μM, 2 days
Experimental: as §1

SHP2 [3] = biological target: T1, SHP2 (Homo sapiens, UniProt Q06124); assay: SHP2 phosphatase inhibition assay (pNPP); format: biochemical; conditions: for IC50: Example 9: SHP2 catalytic domain 20 nM, pNPP 3 mM, pH 7.0, 25° C., read-out: IC50 SHP2
T1 sequence (Q06124 224-528): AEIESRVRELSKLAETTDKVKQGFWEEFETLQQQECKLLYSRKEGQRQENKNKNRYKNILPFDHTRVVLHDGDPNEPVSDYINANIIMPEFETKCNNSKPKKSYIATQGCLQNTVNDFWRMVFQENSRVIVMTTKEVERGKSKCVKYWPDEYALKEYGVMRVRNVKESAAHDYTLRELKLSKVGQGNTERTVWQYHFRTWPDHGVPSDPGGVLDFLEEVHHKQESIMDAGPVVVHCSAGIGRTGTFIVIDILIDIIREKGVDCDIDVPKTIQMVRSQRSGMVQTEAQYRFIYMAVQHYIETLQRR

LMWPTP = biological target: T2, LMWPTP (Homo sapiens, UniProt P24666); assay: PTP inhibition assay (pNPP); format: biochemical; conditions: pNPP at Km, pH 7.0, 25° C.
T2 sequence (P24666 1-158): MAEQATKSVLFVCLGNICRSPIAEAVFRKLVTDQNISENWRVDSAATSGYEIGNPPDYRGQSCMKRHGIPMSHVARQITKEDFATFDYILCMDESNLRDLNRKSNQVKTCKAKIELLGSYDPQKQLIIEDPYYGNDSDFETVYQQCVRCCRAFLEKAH

mPTPA = mPTPA (Mycobacterium tuberculosis, UniProt P9WIA1); assay: biochemical; conditions: IC50 mPTPA
Chain of mPTPA (P9WIA1 whole entry): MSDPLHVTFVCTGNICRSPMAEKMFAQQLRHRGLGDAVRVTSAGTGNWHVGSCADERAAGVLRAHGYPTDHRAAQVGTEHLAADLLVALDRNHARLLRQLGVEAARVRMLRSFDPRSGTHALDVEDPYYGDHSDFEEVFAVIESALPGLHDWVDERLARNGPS

PTPμ = PTPμ (Homo sapiens, UniProt P28827); assay: biochemical
Chain of PTPμ (P28827 21-1452): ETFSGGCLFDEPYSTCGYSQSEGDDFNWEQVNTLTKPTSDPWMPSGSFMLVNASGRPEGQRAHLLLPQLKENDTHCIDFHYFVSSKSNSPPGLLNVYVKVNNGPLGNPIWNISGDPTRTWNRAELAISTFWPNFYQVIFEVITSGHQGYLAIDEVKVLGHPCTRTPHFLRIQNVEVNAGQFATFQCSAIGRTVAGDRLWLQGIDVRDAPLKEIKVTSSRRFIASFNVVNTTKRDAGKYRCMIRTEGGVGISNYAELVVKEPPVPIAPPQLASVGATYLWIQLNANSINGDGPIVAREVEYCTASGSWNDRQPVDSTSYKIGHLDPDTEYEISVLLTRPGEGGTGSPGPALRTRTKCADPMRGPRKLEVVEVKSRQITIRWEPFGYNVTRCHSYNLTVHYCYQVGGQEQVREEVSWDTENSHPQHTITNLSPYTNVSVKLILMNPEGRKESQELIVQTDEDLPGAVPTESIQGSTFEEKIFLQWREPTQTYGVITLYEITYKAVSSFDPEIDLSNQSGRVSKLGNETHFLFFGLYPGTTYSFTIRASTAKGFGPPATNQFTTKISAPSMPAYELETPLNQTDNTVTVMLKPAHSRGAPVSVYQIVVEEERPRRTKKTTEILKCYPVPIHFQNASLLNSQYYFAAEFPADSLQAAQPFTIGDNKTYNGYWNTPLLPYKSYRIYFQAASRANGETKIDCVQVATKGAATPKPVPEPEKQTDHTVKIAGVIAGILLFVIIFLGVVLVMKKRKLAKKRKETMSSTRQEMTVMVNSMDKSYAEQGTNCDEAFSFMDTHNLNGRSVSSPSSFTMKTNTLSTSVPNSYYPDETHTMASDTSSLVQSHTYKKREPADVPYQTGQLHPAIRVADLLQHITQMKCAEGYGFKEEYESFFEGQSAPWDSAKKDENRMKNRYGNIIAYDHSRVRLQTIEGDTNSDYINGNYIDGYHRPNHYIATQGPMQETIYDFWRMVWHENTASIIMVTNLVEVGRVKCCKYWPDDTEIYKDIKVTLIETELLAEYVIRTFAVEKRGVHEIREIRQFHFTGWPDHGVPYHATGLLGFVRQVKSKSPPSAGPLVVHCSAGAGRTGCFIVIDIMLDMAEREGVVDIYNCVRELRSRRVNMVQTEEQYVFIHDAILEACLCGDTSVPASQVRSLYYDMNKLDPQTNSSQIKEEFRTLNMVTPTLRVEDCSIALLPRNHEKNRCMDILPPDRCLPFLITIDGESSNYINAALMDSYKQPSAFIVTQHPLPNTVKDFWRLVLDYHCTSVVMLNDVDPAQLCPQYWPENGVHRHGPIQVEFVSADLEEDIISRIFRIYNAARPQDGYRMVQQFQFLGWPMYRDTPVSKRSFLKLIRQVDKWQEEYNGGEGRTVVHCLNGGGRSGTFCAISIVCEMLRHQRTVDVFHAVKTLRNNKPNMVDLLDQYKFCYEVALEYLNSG

PP5 = biological target: T3, PP5 (Homo sapiens, UniProt P53041); assay: biochemical
T3 sequence (P53041 1-499): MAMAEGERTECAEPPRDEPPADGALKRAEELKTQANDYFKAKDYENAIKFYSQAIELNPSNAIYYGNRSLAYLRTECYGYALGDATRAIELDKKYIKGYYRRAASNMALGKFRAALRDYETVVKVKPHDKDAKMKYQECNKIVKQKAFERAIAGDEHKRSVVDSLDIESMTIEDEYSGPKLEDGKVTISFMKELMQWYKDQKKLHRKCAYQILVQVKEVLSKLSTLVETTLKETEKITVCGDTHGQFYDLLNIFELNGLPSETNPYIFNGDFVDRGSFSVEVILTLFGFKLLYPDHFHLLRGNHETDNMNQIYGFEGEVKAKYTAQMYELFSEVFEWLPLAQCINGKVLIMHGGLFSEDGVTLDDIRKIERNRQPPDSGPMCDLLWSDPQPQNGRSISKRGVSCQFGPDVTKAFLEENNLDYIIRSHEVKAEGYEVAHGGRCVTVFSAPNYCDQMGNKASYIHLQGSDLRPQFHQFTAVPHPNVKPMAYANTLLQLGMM

Ssu72 = biological target: T4, Ssu72 (Homo sapiens, UniProt Q9NP77); assay: PTP inhibition assay (pNPP); format: biochemical; conditions: IC50 Ssu72
T4 sequence (Q9NP77 1-194): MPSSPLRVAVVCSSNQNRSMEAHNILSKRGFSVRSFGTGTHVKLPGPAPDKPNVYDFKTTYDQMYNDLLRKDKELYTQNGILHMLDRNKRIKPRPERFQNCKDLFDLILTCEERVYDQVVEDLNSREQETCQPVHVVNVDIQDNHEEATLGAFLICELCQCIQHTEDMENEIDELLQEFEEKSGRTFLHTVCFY

FAP1 = FAP1 (Homo sapiens, UniProt Q12923); assay: PTP inhibition assay (pNPP); format: biochemical; conditions: IC50 FAP1
Chain of FAP1 (Q12923 whole entry): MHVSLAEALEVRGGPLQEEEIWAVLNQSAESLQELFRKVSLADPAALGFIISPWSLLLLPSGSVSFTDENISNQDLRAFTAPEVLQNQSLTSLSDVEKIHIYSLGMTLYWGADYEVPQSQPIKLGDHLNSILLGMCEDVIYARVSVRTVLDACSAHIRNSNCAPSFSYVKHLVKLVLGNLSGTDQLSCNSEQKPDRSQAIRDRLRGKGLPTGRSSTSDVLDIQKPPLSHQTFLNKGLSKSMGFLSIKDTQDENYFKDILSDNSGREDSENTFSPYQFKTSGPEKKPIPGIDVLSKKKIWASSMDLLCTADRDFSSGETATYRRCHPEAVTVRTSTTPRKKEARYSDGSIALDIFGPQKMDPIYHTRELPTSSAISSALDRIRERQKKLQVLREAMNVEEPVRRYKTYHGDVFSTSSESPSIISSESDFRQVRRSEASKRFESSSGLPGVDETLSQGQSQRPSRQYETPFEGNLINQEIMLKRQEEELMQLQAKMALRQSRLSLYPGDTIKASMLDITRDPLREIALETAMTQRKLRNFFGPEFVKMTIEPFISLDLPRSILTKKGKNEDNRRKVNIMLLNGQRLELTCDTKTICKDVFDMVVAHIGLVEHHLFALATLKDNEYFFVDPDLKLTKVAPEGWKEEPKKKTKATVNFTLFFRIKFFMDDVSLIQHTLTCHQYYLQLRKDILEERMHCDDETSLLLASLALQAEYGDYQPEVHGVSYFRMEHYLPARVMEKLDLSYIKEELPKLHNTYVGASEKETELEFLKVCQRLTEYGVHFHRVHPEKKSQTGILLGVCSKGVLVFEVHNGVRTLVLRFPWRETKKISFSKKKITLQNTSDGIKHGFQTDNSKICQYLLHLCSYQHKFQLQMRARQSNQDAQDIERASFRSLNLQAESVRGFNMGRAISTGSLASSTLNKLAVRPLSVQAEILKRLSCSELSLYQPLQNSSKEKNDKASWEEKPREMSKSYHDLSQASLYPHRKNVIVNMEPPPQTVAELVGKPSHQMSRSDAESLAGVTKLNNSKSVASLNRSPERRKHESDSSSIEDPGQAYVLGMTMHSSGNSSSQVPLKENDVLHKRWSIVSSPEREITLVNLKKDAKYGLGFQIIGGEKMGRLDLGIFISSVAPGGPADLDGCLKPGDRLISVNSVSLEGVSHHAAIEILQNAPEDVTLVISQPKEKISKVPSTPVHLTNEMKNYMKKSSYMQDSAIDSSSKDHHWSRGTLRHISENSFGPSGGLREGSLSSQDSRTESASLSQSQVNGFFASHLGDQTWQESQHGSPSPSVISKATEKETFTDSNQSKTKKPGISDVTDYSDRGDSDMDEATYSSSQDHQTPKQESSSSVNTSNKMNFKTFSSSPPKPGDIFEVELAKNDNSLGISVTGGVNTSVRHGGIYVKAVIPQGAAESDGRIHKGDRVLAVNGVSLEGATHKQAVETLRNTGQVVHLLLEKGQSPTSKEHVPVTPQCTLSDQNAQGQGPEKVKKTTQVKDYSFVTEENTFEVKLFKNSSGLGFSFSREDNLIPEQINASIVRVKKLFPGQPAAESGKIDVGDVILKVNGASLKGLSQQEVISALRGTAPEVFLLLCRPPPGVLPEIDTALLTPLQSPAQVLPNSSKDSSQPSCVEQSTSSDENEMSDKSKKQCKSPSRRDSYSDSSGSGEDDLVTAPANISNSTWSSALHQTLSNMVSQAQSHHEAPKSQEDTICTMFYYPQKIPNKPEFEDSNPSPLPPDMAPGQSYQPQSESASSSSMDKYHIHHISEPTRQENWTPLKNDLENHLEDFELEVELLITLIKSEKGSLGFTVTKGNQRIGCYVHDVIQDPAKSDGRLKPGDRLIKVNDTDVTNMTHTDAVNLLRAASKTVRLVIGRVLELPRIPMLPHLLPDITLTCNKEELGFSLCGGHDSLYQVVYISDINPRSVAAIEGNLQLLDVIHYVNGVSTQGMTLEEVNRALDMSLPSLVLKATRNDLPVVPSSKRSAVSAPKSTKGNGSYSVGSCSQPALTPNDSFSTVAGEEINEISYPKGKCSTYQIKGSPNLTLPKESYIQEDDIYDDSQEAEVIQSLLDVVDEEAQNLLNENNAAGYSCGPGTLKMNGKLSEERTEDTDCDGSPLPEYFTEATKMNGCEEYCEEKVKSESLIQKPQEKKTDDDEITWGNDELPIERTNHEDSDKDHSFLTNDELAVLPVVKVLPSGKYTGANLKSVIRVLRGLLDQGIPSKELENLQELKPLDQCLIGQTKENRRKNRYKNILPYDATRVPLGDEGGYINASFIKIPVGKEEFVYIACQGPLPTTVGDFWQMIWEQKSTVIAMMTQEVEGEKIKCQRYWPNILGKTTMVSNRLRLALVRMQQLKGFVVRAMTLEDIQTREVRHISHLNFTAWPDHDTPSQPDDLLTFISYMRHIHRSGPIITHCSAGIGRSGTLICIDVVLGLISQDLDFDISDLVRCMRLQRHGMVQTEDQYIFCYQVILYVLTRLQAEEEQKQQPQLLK

TbPTP1 = TbPTP1 (Trypanosoma brucei brucei, UniProt Q38AT7); assay: PTP inhibition assay (pNPP); format: biochemical; conditions: pNPP at Km, pH 7.0, 25° C.; read-out: IC50 TbPTP1
Chain of TbPTP1 (Q38AT7 entry or part of it): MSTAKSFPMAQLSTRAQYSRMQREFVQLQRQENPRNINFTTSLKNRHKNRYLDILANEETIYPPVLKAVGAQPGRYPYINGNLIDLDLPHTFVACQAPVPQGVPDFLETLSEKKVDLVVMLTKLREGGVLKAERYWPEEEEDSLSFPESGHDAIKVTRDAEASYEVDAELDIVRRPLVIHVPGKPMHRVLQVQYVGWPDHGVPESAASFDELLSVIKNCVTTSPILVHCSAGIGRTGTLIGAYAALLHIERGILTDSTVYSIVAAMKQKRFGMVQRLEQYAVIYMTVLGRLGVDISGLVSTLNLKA

VHX = biological target: T5, VHX (Homo sapiens, UniProt Q9NRW4); assay: PTP inhibition assay (pNPP); format: biochemical; conditions: IC50 VHX, pNPP at Km, pH 7.0, 25° C.
T5 sequence (Q9NRW4 1-184): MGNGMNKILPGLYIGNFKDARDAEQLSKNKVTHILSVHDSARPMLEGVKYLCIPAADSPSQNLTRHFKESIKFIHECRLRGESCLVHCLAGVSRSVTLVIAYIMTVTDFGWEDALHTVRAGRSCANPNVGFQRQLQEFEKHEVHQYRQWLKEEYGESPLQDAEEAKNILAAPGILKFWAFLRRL

PEST = biological target: T6, PEST (Homo sapiens, UniProt Q05209); assay: PTP inhibition assay (pNPP); format: biochemical; conditions: IC50 PEST
T6 sequence (Q05209 1-780): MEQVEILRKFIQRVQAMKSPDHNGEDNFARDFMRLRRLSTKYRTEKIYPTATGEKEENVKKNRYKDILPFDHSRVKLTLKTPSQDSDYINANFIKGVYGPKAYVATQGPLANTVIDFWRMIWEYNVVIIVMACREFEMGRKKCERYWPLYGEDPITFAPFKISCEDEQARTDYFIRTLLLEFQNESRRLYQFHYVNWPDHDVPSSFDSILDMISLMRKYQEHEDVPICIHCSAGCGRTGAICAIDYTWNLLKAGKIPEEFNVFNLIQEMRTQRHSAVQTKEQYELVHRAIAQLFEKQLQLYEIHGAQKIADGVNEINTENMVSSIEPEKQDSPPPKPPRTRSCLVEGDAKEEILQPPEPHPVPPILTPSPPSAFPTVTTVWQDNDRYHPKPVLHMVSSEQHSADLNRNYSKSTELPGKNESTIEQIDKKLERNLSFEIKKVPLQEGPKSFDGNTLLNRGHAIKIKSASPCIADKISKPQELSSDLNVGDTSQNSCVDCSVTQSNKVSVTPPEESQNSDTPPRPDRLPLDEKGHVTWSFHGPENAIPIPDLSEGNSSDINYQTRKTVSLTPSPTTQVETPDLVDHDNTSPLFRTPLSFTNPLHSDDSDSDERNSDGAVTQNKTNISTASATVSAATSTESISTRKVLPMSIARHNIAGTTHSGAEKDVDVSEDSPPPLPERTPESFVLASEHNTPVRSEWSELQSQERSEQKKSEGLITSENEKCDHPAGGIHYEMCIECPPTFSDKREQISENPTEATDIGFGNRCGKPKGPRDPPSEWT

SHP2 [4] = biological target: SHP2 (Homo sapiens, UniProt Q06124); assay: Covalent modification of SHP2 by QTOF ESI-MS / LC-MS; conditions: 100 μM compound; cefsulodin three hours, phenyl vinyl sulfone 10 minutes
Experimental: Agilent 6520 Accurate-Mass was used for the Q-TOF ESI-MS studies. Water and acetonitrile (both containing 0.1% formic acid) were used as eluent (80% water, flow 50 μL/min, run time 5 minutes). ESI positive mode was used with mass range from 300 to 1700, the gas temperature was 325° C., and vaporizer temperature was: […]. The sample was adjusted to have a concentration at 0.1 mg/mL, the injection volume of each sample was 1 μL. Mass hunter software was used for protein deconvolution data analysis to calculate the molecular weight of the protein.
Agilent Technologies 6130 quadrupole LC-MS instrument was used for the LC-MS studies. A C18 reserved phase column (phenomenex, 50×4.6 mm) was used as stationary phase, water and methanol (both containing 0.1% formic acid) were used as mobile phase (gradient: 0-100% methanol, flow 0.8 mL/min, run time 15 minutes), and UV absorbance at the fixed wavelength of 254 nm and positive and negative ESI-MS data were recorded. The sample was adjusted to have a concentration at 0.1 mg/mL, and the injection volume of each sample was 0.2 μL. The retention time and corresponding ESI-MS data were used as identity of molecules.

[5] = system: EGF-mediated ERK1/2 phosphorylation in H1975 cells; assay: EGF-induced ERK1/2 phosphorylation immunoblot; format: cell-based, human; conditions: compound 7 at 40 μM
Experimental: as §1

| SMILES | H1975 cell proliferation (MTT) [1] | MDA-MB-231 cell survival/growth (MTT) [2] | IC50 (SHP2 [3]) [µM] | IC50 (PTPμ) [µM] | IC50 (PP5) [µM] | other results |
| --- | --- | --- | --- | --- | --- | --- |
| CC(C)c1ccc(NC(=O)C(=O)Nc2ccc(NC(=O)C(c3ccccc3)S(=O)(=O)O)cc2)cc1 (stereo not drawn) [Compound 6, 2-((4-(2-((4-isopropylphenyl)amino)-2-oxoacetamido)phenyl)amino)-2-oxo-1-phenylethanesulfonic acid] | reduce H1975 cell proliferation in a dose dependent manner; also recorded: significantly (**p<0.01) reduced cell proliferation | significantly (**p<0.01) reduced cell survival | 2.33 ± 0.04 | – | – | – |
| O=C(CS(=O)(=O)O)Nc1ccc(N2CCOCC2)cc1 | – | – | – | – | – | IC50 (LMWPTP): 63 µM; IC50 (mPTPA): 2.2 µM |
| O=C(Nc1ccc(NC(=O)C(c2ccccc2)S(=O)(=O)O)cc1)C(=O)Nc1ccc(-c2ccccc2)cc1 (stereo not drawn) [Compound 5, 2-((4-(2-([1,1′-biphenyl]-4-ylamino)-2-oxoacetamido)phenyl)amino)-2-oxo-1-phenylethanesulfonic acid] | reduce H1975 cell proliferation in a dose dependent manner; also recorded: significantly (**p<0.01) reduced cell proliferation | significantly (**p<0.01) reduced cell survival | 1.36 ± 0.04 | > 10 | > 10 | – |
| O=C(Nc1ccc(NC(=O)C(c2ccccc2)S(=O)(=O)O)cc1)C(=O)Nc1ccc(-c2cccs2)cc1 (stereo not drawn) [Compound 3, 2-oxo-2-((4-(2-oxo-2-((4-(thiophen-2-yl)phenyl)amino)acetamido)phenyl)amino)-1-phenylethanesulfonic acid] | no significant effect | – | 0.9 | > 10 | > 10 | – |
| O=C(Nc1ccc(OCc2ccccc2)c(Cl)c1)C(=O)Nc1ccccc1NC(=O)C(c1ccccc1)S(=O)(=O)O (stereo not drawn) [Compound L319-21-M50] | – | – | – | – | – | IC50 (Ssu72): > 50 µM; IC50 (FAP1): 39 µM; IC50 (TbPTP1): > 50 µM; IC50 (VHX): > 50 µM; IC50 (PEST): > 50 µM |
| C=CS(=O)(=O)c1ccccc1 [phenyl vinyl sulfone] | – | – | – | – | – | Covalent adduct formation with SHP2 (QTOF ESI-MS) (SHP2 [4]): formed a covalent adduct |
| O=C(Nc1ccc(NC(=O)C(c2ccccc2)S(=O)(=O)O)cc1)C(=O)Nc1cc(-c2ccc(Br)cc2)n[nH]1 (stereo not drawn) [Compound 4, 2-((4-(2-((3-(4-bromophenyl)-1H-pyrazol-5-yl)amino)-2-oxoacetamido)phenyl)amino)-2-oxo-1-phenylethanesulfonic acid] | no significant effect | – | 0.73 ± 0.02 | > 10 | > 10 | Fold selectivity for SHP2 against PTPs examined (SHP2 [3]; cefsulodin: with the exception of SHP1): ≥ 8 fold |
| O=C(Nc1ccccc1)C(=O)Nc1ccc(NC(=O)C(c2ccccc2)S(=O)(=O)O)cc1 (stereo not drawn) [Compound 7, 2-oxo-2-((4-(2-oxo-2-(phenylamino)acetamido)phenyl)amino)-1-phenylethanesulfonic acid] | ineffective; also recorded: did not | did not | > 50 | – | – | Effect on EGF-mediated ERK1/2 phosphorylation [5]: no appreciable effect; also recorded: failed to block EGF-mediated ERK1/2 phosphorylation; Inhibition of SHP2 at 50 μM (SHP2 [3]; 50 μM): no inhibition |

Reference: patent US10494332B2, “Protein tyrosine phosphatases or SHP2 inhibitors and uses thereof” (Indiana University Research and Technology Corporation, priority 2015, dated 2019)
